Data from patent US8017727B2, “Conjugates of membrane translocating agents and pharmaceutically active agents” (Merrion Research III Limited, priority 1999, dated 2011).
Read-outs that look alike come from different tables or passages of the source.

Assays:
[1] = Systemic 3H bioavailability of kappa peptide conjugates, conscious rat model (plasma); format: in vivo, Wistar rats
Description: The possible enhancing effects of ELAN094 and ELAN207 MTLPs (SEQ ID NOs 2 and 60) on intestinal absorption of the kappa peptide were examined in a conscious rat model.
The study was non-randomised, parallel group design. Wistar rats within the 250-350 g weight range were used. All animals were fasted for a period of 16 h prior to study initiation. Water was available at all times.
Intravenous injection of 10 μCi of ^3H-kappa peptide-Kaffiralin-1 (plain kappa peptide) (tail vein injection).
Intraduodenal instillation of 100 μCi of ^3H-kappa peptide-Elan094 (Analysed). The Elan094 ligand contains a membrane translocating sequence.
Intraduodenal instillation of 100 μCi of ^3H-kappa peptide-Elan207 (Analysed). The Elan207 ligand contains a membrane translocating sequence.
Intraduodenal instillation of 100 μCi of ^3H-kappa peptide-Kaffiralin-1.
The plasma (100-250 μl) was made up to 1 ml with BTS-450 (an organic tissue solubiliser) and incubated for 1 hour. Ten ml of Scintillation fluid was added and the radioactivity was measured.
The study was a non-randomised, parallel group biostudy designed to evaluate the systemic bioavailability of tritium labelled kappa peptide conjugates after intra-duodenal instillation in the conscious rat model. Each rat only received one treatment and the plasma samples were analysed for tritium content. The calculation of AUClast, Amax, tmax, Volume of Distribution (V d) and Clearance was based on base line corrected data. The absolute bioavailability was calculated using potency corrected data.

[2] = 3H tissue distribution of kappa peptide conjugates, conscious rat model; format: in vivo, Wistar rats; conditions: potency corrected; for Kidney, % of administered dose / Plasma, % of administered dose / Total Recovery, % of administered dose: t=6 h
Description: The tissue was weighed and a representative sample, (ca 0.1 g), was removed to a scintillation vial. The tissue was solubilzed with 1 ml of BTS-450 (an organic tissue solubliser). Ten ml of scintillation fluid was added and the radioactivity was measured. The radioactivity was expressed as dpm/initial weight of tissue.

[3] = biological target: T1, kappa receptor (Rattus norvegicus, UniProt P34975); experiment: Competition for binding of a radiolabelled kappa peptide to rat brain homogenates; conditions: for opioid activity post conjugation: compared to unconjugated H-ffir-NH2 or to the ELAN207 conjugate
T1 construct: from tissue; host or cells: rat brain homogenate
Description: The integrity of the opioid peptide was evaluated post conjugation to assess suitability for inclusion in further studies. Opioid activity was assessed in vitro using a competition assay (competition for binding of a radiolabelled kappa peptide to rat brain homogenates).

[4] = intraduodenal (ID), 100 μCi, Elan207 = original group
[5] = IV, 10 μCi, listed as 3H Kappa peptide-Kaffiralin-1
[6] = IC50, Table 11, first IC50 column

Structure (SMILES): CC[C@@H](C)[C@@H](NC(=O)[C@@H](Cc1ccccc1)NC(=O)[C@H](N)Cc1ccccc1)C(=O)N[C@H](CCCNC(=N)N)C(N)=O [3H-Kappa peptide-Kaffiralin-1]
- 3H AUClast [1, 4]: 73098.43±9493.88 dpm/ml·h
- 3H Amax (maximum radioactivity) [1, 4]: 70925.33±23631.28 dpm/ml
- 3H AUClast ([1]; intravenous (IV), 10 μCi): 132184.24±13288.32 dpm/ml·h
- 3H Amax (maximum radioactivity) ([1]; intravenous (IV), 10 μCi): 903603.03±186855.31 dpm/ml
- bioavailability ([1]; rat, plasma, intraduodenal (ID), 100 μCi, potency corrected, Elan207 = original group, read-out: Absolute 3H bioavailability): 7.94 ± 1.92%
- clearance ([1]; rat, plasma, intravenous (IV), 10 μCi): 2.38 mL/min
- Vd ([1]; rat, plasma, intravenous (IV), 10 μCi, read-out: Volume of Distribution): 0.964 ± 0.256 L
- Catheter, % of administered dose ([2]; ID, 100 μCi): 0.06 ± 0.05%
- GI Tissue, % of administered dose ([2]; ID, 100 μCi): 7.72 ± 4.98%
- GI Washing, % of administered dose ([2]; ID, 100 μCi): 15.85 ± 5.00%
- GI contents, % of administered dose ([2]; ID, 100 μCi): 37.31 ± 15.75%
- Liver, % of administered dose ([2]; ID, 100 μCi): 0.63 ± 0.37%
- Total GI (% recovery from GI tissue, GI contents & GI wash) ([2]; ID, 100 μCi): 60.87 ± 16.74%
- Kidney, % of administered dose ([2]; ID, 100 μCi): 0.16 ± 0.17%
- Plasma, % of administered dose ([2]; ID, 100 μCi): 0.06 ± 0.01%
- Total Recovery, % of administered dose ([2]; ID, 100 μCi): 61.79 ± 16.93%
- Plasma, % of administered dose ([2]; ID, 100 μCi, listed as 3H-Kappa peptide Kaffiralin-1): 0.06±0.01%
- GI Tissue, % of administered dose ([2]; IV, 10 μCi): 1.62 ± 0.41%
- GI Washing, % of administered dose ([2]; IV, 10 μCi): 1.98 ± 1.01%
- GI contents, % of administered dose ([2]; IV, 10 μCi): 23.50 ± 11.04%
- Liver, % of administered dose ([2]; IV, 10 μCi): 6.66 ± 1.77%
- Total GI (% recovery from GI tissue, GI contents & GI wash) ([2]; IV, 10 μCi): 27.10 ± 11.93%
- Liver, % of administered dose [2, 5]: 6.66±1.77%
- Kidney, % of administered dose ([2]; IV, 10 μCi): 0.51 ± 0.08%
- Plasma, % of administered dose ([2]; IV, 10 μCi): 0.16 ± 0.03%
- Total Recovery, % of administered dose ([2]; IV, 10 μCi): 34.43 ± 13.36%
- Plasma, % of administered dose [2, 5]: 0.16±0.03%
- Total Recovery, % of administered dose ([2]; IV, 10 μCi, listed as 3H Kappa-peptide-Kaffiralin-1): 34.43±13.36%

Structure (SMILES): CC[C@@H](C)[C@@H](NC(=O)[C@@H](Cc1ccccc1)NC(=O)[C@H](N)Cc1ccccc1)C(=O)N[C@H](CCCNC(=N)N)C(=O)N[C@H](CCCCNC(=O)[C@H]1CCCN1C(=O)[C@@H](C)NC(=O)[C@@H](C)NC(=O)[C@@H](CC(C)C)NC(=O)[C@@H](CC(C)C)NC(=O)[C@H](NC(=O)[C@H]1CCCN1C(=O)[C@@H](CC(C)C)NC(=O)[C@@H](CC(C)C)NC(=O)[C@H](NC(=O)[C@@H](C)NC(=O)[C@@H](C)NC(=O)[C@@H](C)NC(=O)[C@@H](CCCCN)NC(=O)[C@H](N)CCCCN)C(C)C)C(C)C)C(N)=O [P10-110, H-ffirk(kkaaavllpvllaap-NH-e)-NH2]
- opioid activity post conjugation [3]: significantly reduced

Structure (SMILES): CC[C@@H](C)[C@@H](NC(=O)[C@@H](Cc1ccccc1)NC(=O)[C@H](N)Cc1ccccc1)C(=O)N[C@H](CCCNC(=N)N)C(=O)NCCCC[C@@H](NC(=O)[C@H]1CCCN1C(=O)[C@@H](C)NC(=O)[C@@H](C)NC(=O)[C@@H](CC(C)C)NC(=O)[C@@H](CC(C)C)NC(=O)[C@H](NC(=O)[C@H]1CCCN1C(=O)[C@@H](CC(C)C)NC(=O)[C@@H](CC(C)C)NC(=O)[C@H](NC(=O)[C@@H](C)NC(=O)[C@@H](C)NC(=O)[C@@H](C)NC(=O)[C@@H](CCCCN)NC(=O)[C@H](N)CCCCN)C(C)C)C(C)C)C(N)=O [P10-114, H-kkaaavllpvllaapk(ffir-NH-e)-NH2]
- IC50 ([3]; Day 5, second of duplicates, read-out: IC50): 1 nM
- IC50 ([3]; Day 82, first of triplicates, read-out: IC50): 0.8 nM
- IC50 ([3]; Day 82, second of triplicates, read-out: IC50): 0.8 nM
- opioid activity post conjugation [3]: retained, or even enhanced

Structure (SMILES): CC[C@@H](C)[C@@H](NC(=O)[C@@H](Cc1ccccc1)NC(=O)[C@H](N)Cc1ccccc1)C(=O)N[C@H](CCCNC(=N)N)C(=O)NCCCC[C@@H](NC(=O)[C@H]1CCCN1C(=O)[C@@H](C)NC(=O)[C@@H](C)NC(=O)[C@@H](CC(C)C)NC(=O)[C@@H](CC(C)C)NC(=O)[C@H](NC(=O)[C@H]1CCCN1C(=O)[C@@H](CC(C)C)NC(=O)[C@@H](CC(C)C)NC(=O)[C@H](NC(=O)[C@@H](C)NC(=O)[C@@H](C)NC(=O)[C@@H](C)NC(=O)[C@@H](CCCCN)NC(=O)[C@@H](CCCCN)NC(=O)[C@@H](N)CCCCNC(=O)CCCCCNC(=O)CCCC[C@@H]1SC[C@@H]2NC(=O)N[C@@H]21)C(C)C)C(C)C)C(N)=O [P34-154, H-K(biotin-LC)kkaaavllpvllaapk(ffir-NH-e)-NH2]
- opioid activity post conjugation [3]: retained activity

Structure (SMILES): CC[C@@H](C)[C@@H](NC(=O)[C@@H](Cc1ccccc1)NC(=O)[C@H](N)Cc1ccccc1)C(=O)N[C@H](CCCNC(=N)N)C(=O)NCCCC[C@H](NC(=O)[C@@H]1CCCN1C(=O)[C@H](C)NC(=O)[C@H](C)NC(=O)[C@H](CC(C)C)NC(=O)[C@H](CC(C)C)NC(=O)[C@@H](NC(=O)[C@@H]1CCCN1C(=O)[C@H](CC(C)C)NC(=O)[C@H](CC(C)C)NC(=O)[C@@H](NC(=O)[C@H](C)NC(=O)[C@H](C)NC(=O)[C@H](C)NC(=O)[C@H](CCCCN)NC(=O)[C@H](CCCCN)NC(=O)[C@@H](N)CCCCNC(=O)CCCCCNC(=O)CCCC[C@@H]1SC[C@@H]2NC(=O)N[C@@H]21)C(C)C)C(C)C)C(N)=O [P37-114]
- IC50 [3, 6]: 0.4 nM
- opioid activity post conjugation [3]: activity equivalent to that observed with ELAN207

Structure (SMILES): CC[C@@H](C)[C@@H](NC(=O)[C@@H](Cc1ccccc1)NC(=O)[C@H](N)Cc1ccccc1)C(=O)N[C@H](CCCNC(=N)N)C(=O)NCCCC[C@H](NC(=O)[C@@H](CCCCN)NC(=O)[C@@H](CCCCN)NC(=O)[C@@H](C)NC(=O)[C@@H](C)NC(=O)[C@@H](C)NC(=O)[C@H](NC(=O)[C@@H](CC(C)C)NC(=O)[C@@H](CC(C)C)NC(=O)[C@H]1CCCN1C(=O)[C@H](NC(=O)[C@@H](CC(C)C)NC(=O)[C@@H](CC(C)C)NC(=O)[C@@H](C)NC(=O)[C@@H](C)NC(=O)[C@H]1CCCN1C(=O)[C@@H](N)CCCCNC(=O)CCCCCNC(=O)CCCC[C@@H]1SC[C@@H]2NC(=O)N[C@@H]21)C(C)C)C(C)C)C(N)=O [P37-115, H-K(biotin-LC)paallvpllvaaakkK(ffir-NH-e)-NH2]
- opioid activity post conjugation [3]: activity equivalent to that observed with ELAN207

Structure (SMILES): CC[C@@H](C)[C@@H](NC(=O)[C@@H](Cc1ccccc1)NC(=O)[C@H](N)Cc1ccccc1)C(=O)N[C@H](CCCNC(=N)N)C(=O)NCCCC[C@H](NC(=O)[C@@H]1CSSC[C@H](NC(=O)[C@H](CCCCN)NC(=O)[C@H](CCCCN)NC(=O)[C@@H](N)CCCCNC(=O)CCCCCNC(=O)CCCC[C@@H]2SC[C@@H]3NC(=O)N[C@@H]32)C(=O)N[C@@H](C)C(=O)N[C@@H](C)C(=O)N[C@@H](C(C)C)C(=O)N[C@@H](CC(C)C)C(=O)N[C@@H](CC(C)C)C(=O)N2CCC[C@H]2C(=O)N[C@@H](C(C)C)C(=O)N[C@@H](CC(C)C)C(=O)N[C@@H](CC(C)C)C(=O)N[C@@H](C)C(=O)N1)C(N)=O [P37-116]
- IC50 [3, 6]: 0.2 nM
- opioid activity post conjugation [3]: activity equivalent to that observed with ELAN207
